Laboratory results from patent US7598293B2, “Compounds and their use in medicine, process for their preparation and pharmaceutical compositions containing them” (Dr. Reddy's Laboratories, Inc., priority 2001, dated 2009).
Structures can show the parent of a compound that is named as a salt. One block for each compound: values may come before it.

Experiments:
[1] = tested on: hypercholesterolemic Sprague Dawley rats; assay: Plasma triglyceride and cholesterol lowering activity in hypercholesterolemic rat models; assay type: in vivo; conditions: 1 mg/kg oral, results after 3 days
Procedure: b) Plasma triglyceride and Cholesterol lowering activity in hypercholesterolemic rat models Male Sprague Dawley rats (NIN stock) were bred in DRF animal house. Animals were maintained under 12 hour light and dark cycle at 25±1° C. Rats of 180-200 gram body weight range were used for the experiment. Animals are made hypercholesterolemic by feeding 2% cholesterol and 1% sodium cholate mixed with standard laboratory chow [National Institute of Nutrition (NIN), Hyderabad, India] for 6 days. Throughout the experimental period the animals were maintained on the same diet (Petit, D., Bonnefis, M. T., Rey, C and Infante, R. Effects of ciprofibrate on liver lipids and lipoprotein synthesis in normo- and hyperlipidemic rats. Atherosclerosis. 1988. 74: 215-225).
The test compounds can be administered orally at a dose 0.1 to 30 mg/kg/day for 3 days. Control group was treated with vehicle alone (0.25% Carboxymethylcellulose; dose 10 ml/kg).
The blood samples can be collected in fed state 1 hour after drug administration on 0 and 3 day of compound treatment. The blood can be collected from the retro-orbital sinus through heparinised capillary in EDTA containing tubes. After centrifugation, plasma sample will be separated for total cholesterol, HDL and triglyceride estimations. Measurement of plasma triglyceride, total cholesterol and HDL were done using commercial kits (Dr. Reddy's Laboratory, Diagnostic Division, India). LDL and VLDL cholesterol can be calculated from the data obtained for total cholesterol, HDL and triglyceride. The reductions of various parameters examined are calculated according to the formula.
(§1) 1. Percent reduction in Blood sugar/triglycerides/total cholesterol will be calculated according to the formula:
(§2) [formula] • OC=Zero day control group value • OT=Zero day treated group value • TC=Test day control group value • TT=Test day treated group value
2. LDL and VLDL, cholesterol levels will be calculated according to the formula:
[formula] VLDL cholesterol in mg/dl=[Total cholesterol-HDL cholesterol-LDL cholesterol]mg/dl.

hPPARα = target: T1, hPPARα (Homo sapiens, UniProt Q07869); assay: Determination of hPPARα activity (GAL4 luciferase reporter, transfected HEK-293 cells); assay type: cell-based; conditions: compound concentration 50 μM
T1 construct: expressed in transfected cells; host or cells: HEK-293
T1 sequence (Q07869 239-466 limits assumed): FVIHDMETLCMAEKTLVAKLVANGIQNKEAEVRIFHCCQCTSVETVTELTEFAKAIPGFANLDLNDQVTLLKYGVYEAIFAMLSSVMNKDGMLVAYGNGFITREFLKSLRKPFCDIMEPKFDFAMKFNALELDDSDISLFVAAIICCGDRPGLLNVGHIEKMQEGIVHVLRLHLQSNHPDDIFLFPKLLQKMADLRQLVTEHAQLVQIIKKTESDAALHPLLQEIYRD
Procedure: a) Determination of hPPARα activity Ligand binding domain of hPPARα was fused to DNA binding domain of Yeast transcription factor Gal 4 in eucaryotic expression vector. Using superfect (Qiagen, Germany) as transfecting reagent HEK-293 cells are transfected with this plasmid and a reporter plasmid harboring the luciferase gene driven by a GAL4 specific promoter. Compound can be added at different concentrations after 42 hrs of transfection and incubated overnight. Luciferase activity as a function of compound binding/activation capacity of PPARα will be measured using Packard Luclite kit (Packard, USA) in Top Count (Ivan Sadowski, Brendan Bell, Peter Broag and Melvyn Hollis. Gene. 1992. 118: 137-141; Superfect Transfection Reagent Handbook. February 1997. Qiagen, Germany).

hPPARγ1 = target: T2, hPPARγ1 (Homo sapiens, UniProt P37231); assay: Determination of hPPARγ activity (GAL4 luciferase reporter, transfected HEK-293 cells); assay type: cell-based; conditions: compound concentration 1 μM
T2 construct: expressed in transfected cells; host or cells: HEK-293
T2 sequence (P37231 238-503 limits assumed): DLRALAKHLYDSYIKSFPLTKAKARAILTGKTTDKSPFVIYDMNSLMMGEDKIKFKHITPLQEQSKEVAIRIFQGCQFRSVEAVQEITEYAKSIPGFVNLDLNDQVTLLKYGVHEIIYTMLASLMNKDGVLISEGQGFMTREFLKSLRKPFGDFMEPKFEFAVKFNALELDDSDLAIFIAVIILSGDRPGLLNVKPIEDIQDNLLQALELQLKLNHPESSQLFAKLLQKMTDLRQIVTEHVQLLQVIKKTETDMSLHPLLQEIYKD
Procedure: b) Determination of hPPARγ activity Ligand binding domain of hPPARγ1 is fused to DNA binding domain of Yeast transcription factor GAL4 in eucaryotic expression vector. Using lipofectamine (Gibco BRL, USA) as transfecting reagent HEK-293 cells are transfected with this plasmid and a reporter plasmid harboring the luciferase gene driven by a GAL4 specific promoter. Compound can be added at 1 μM concentration after 48 hrs of transfection and incubated overnight. Luciferase activity as a function of drug binding/activation capacity of PPARγ1 will be measured using Packard Luclite kit (Packard, USA) in Packard Top Count (Ivan Sadowski, Brendan Bell, Peter Broag and Melvyn Hollis. Gene. 1992. 118: 137-141; Guide to Eukaryotic Transfections with Cationic Lipid Reagents. Life Technologies, GIBCO BRL, USA).

C57BL/KsJ-db/db mice = assay: Efficacy in genetic models: blood sugar and triglyceride lowering in db/db mice; assay type: in vivo, mouse; conditions: 3 mg/kg oral, results after 6 days
Excerpt: a) Efficacy in Genetic Models Mutation in colonies of laboratory animals and different sensitivities to dietary regimens has made the development of animal models with non-insulin dependent diabetes and hyperlipidemia associated with obesity and insulin resistance possible. Genetic models such as db/db and ob/ob (Diabetes, (1982) 31(1): 1-6) mice and zucker fa/fa rats have been developed by the various laboratories for understanding the pathophysiology of disease and testing the efficacy of new antidiabetic compounds (Diabetes, (1983) 32: 830-838; Annu. Rep. Sankyo Res. Lab. (1994). 46: 1-57). The homozygous animals, C57 BL/KsJ-db/db mice developed by Jackson Laboratory, US, are obese, hyperglycemic, hyperinsulinemic and insulin resistant (J. Clin. Invest., (1990) 85: 962-967), whereas heterozygous are lean and normoglycemic. In db/db model, mouse progressively develops insulinopenia with age, a feature commonly observed in late stages of human type II diabetes when blood sugar levels are insufficiently controlled. The state of pancreas and its course vary according to the models. Since this model resembles that of type II diabetes mellitus, the compounds of the present invention will be tested for blood sugar and triglycerides lowering activities.
Male C57BL/KsJ-db/db mice of 8 to 14 weeks age, having body weight range of 35 to 60 grams, bred at Dr. Reddy's Research Foundation (DRF) animal house, were used in the experiment. The mice are provided with standard feed (National Institute of Nutrition (NIN), Hyderabad, India) and acidified water, ad libitum. The animals having more than 350 mg/dl blood sugar will be used for testing. The number of animals in each group will be 4.
Test compounds are suspended on 0.25% carboxymethyl cellulose and administered to test group at a dose of 0.1 mg to 30 mg/kg through oral gavage daily for 6 days. The control group receives vehicle (dose 10 ml/kg). On 6th day the blood samples will be collected one hour after administration of test compounds/vehicle for assessing the biological activity.
The random blood sugar and triglyceride levels can be measured by collecting blood (100 μl) through orbital sinus, using heparinised capillary in tubes containing EDTA which was centrifuged to obtain plasma. The plasma glucose and triglyceride levels can be measured spectrometrically, by glucose oxidase and glycerol-3-PO4 oxidase/peroxidase enzyme (Dr. Reddy's Lab. Diagnostic Division Kits, Hyderabad, India) methods respectively.
The blood sugar and triglycerides lowering activities of the test compound are calculated according to the formula.
as §1, §2

Compound: CO[C@@H](Cc1ccc(NC/C=C/c2ccc(OS(C)(=O)=O)cc2)cc1)C(=O)O [Example 43, (S)-2-Methoxy-3-[4-{(E)-3-(4-methylsulfonyloxyphenyl)-2-propenylamino}phenyl]propionic acid]
- Increase in High Density Lipoprotein (%) [1]: 77%
- Reduction in Total Cholesterol (%) [1]: 53%
- Triglyceride Lowering (%) [1]: 55%
- Reduction in Low Density Lipoprotein (%) ([1]; LDL calculated from total cholesterol, HDL and triglyceride): 56%

- melting point: 143 to 145 °C
Compound: CC(C)OC(Cc1ccc(NCCCc2ccc(OS(C)(=O)=O)cc2)cc1)C(=O)O (centres unmarked) (hydrate or solvate) [Example 21, 2-Isopropoxy-3-[4-{3-(4-methanesulfonyloxyphenyl)propylamino}phenyl]propionic acid]

- melting point: 164 to 166 °C
Compound: CCOC(Cc1ccc(NC(=O)CCc2ccc(OS(C)(=O)=O)cc2)cc1)C(=O)O (centres unmarked) [Example 34]

- PPARα (hPPARα): 6.1
- PPARγ (hPPARγ1): 0.7
Compound: CCOC(Cc1ccc(NCCCc2ccc(OS(C)(=O)=O)cc2)cc1)C(=O)O (centres unmarked) [Example 15, 2-Ethoxy-3-[4-{3-(4-methanesulfonyloxyphenyl)propylamino}phenyl]propionic acid]

- melting point: 178 to 180 °C
Compound: CCOC(Cc1ccc(NC(=O)/C=C/c2ccc(OS(C)(=O)=O)cc2)cc1)C(=O)O (centres unmarked) [Example 32, 2-Ethoxy-3-{4-[(E)-2-(4-methylsulfonyloxyvhenyl)-1-ethenylcarboxamido]-phenyl}propionic acid]

Compound: CCOC(=O)[C@H](Cc1ccc(NC/C=C/c2ccc(OS(C)(=O)=O)cc2)cc1)OC [Example 42, (S) Ethyl 2-methoxy-3-[4-{(E)-3-(4-methylsulfonyloxyphenyl)-2-propenylamino}phenyl]propionate]
- Reduction in Blood Glucose Level (%) (C57BL/KsJ-db/db mice): 63%
- Triglyceride Lowering (%) (C57BL/KsJ-db/db mice): 56%

- PPARα (hPPARα): 9.4
- PPARγ (hPPARγ1): 0.7
- melting point: 90 to 92 °C
Compound: CO[C@@H](Cc1ccc(NCCCc2ccc(OS(C)(=O)=O)cc2)cc1)C(=O)O [Example 14, (S)-2-Methoxy-3-[4-{3-(4-methanesulfonyloxyphenyl)propylamino}phenyl]propionic acid]

- melting point: 98 to 100 °C
Compound: CCOC(Cc1ccc(NCCCc2ccc(OS(=O)(=O)c3ccc(C)cc3)cc2)cc1)C(=O)O (centres unmarked) (hydrate or solvate) [Example 19, 2-ethoxy-3-[4-{3-(4-(toluene-4-sulfonyloxy)phenyl)propylamino}phenyl]propionate]

- melting point: 116 to 118 °C
Compound: CO[C@@H](Cc1ccc(NC/C=C/c2ccc(OS(C)(=O)=O)cc2)cc1)C(=O)O (hydrate or solvate) [Example 43, (S)-2-Methoxy-3-[4-{(E)-3-(4-methylsulfonyloxyphenyl)-2-propenylamino}phenyl]propionic acid]

- melting point: 156 to 158 °C
Compound: CCOC(Cc1ccc(NC/C=C/c2ccc(OS(C)(=O)=O)cc2)cc1)C(=O)O (stereo in doubt) [Example 25, (S)-2-Ethoxy-3-{4-[(E)-3-(4-methylsulfonyloxyphenyl)-2-prope-nylamino]phenyl}propionic acid]

- melting point: 90 to 92 °C
Compound: CCOC(=O)C(Cc1ccc(NC(=O)CCc2ccc(OS(C)(=O)=O)cc2)cc1)OCC (centres unmarked) [Example 33, Ethyl 2-ethoxy-3-[4-(4-methylsulfonyloxyphenethylcarboxamido)phenyl]-propionate]

- PPARα (hPPARα): 8.5
- PPARγ (hPPARγ1): 0.8
Compound: CCOC(Cc1ccc(NC/C=C/c2ccc(OS(C)(=O)=O)cc2)cc1)C(=O)O (centres unmarked) [Example 27, 2-Ethoxy-3-{4-[(E)-3-(4-methylsulfonyloxyphenyl)-2-propenylamino]phenyl}propionic acid]

- melting point: 120 to 122 °C
Compound: CCOC(Cc1ccc(NCCCc2ccc(OS(C)(=O)=O)cc2)cc1)C(=O)O (centres unmarked) (hydrate or solvate) [Example 15, 2-Ethoxy-3-[4-{3-(4-methanesulfonyloxyphenyl)propylamino}phenyl]propionic acid]

Compound: CCOC(Cc1cccc(NCCCc2ccc(OS(C)(=O)=O)cc2)c1)C(=O)O (centres unmarked) [Example 39, 2-Ethoxy-3-[3-{3-(4-methanesulfonyloxyphenyl)propylamino}phenyl]propionic acid Arginine salt]
- Reduction in Blood Glucose Level (%) (C57BL/KsJ-db/db mice): 56%
- Triglyceride Lowering (%) (C57BL/KsJ-db/db mice): 36%
